According to publication PMC7980952 (Clinical cancer research : an official journal of the …, 2019):
“Also recorded” adds a separate entry of the source. Like-named read-outs stand apart in the source and are kept apart here.

Assays:
IDO = details: ref Siu et al. 2017; cited from earlier work
[1] = in vivo
IDO1 = assay: Plasma Kyn as peripheral biomarker of IDO1 activity; format: in vivo, human
preclinical tumor models = details: combination with anti-PD-L1 vs single agents; ref Spahn et al. 2015; cited from earlier work
[2] = Phase Ib safety assessments: adverse events; details: in combination with atezolizumab
solid tumors = details: ref Nayak et al. 2018, cited from earlier work
[3] = test system: locally advanced or metastatic solid tumors; assay: Tumor response by investigators per RECIST v1.1; format: in vivo, human; details: with atezolizumab; for ORR in IDO1 0 patients / ORR in PDL1 0 patients / ORR in PDL1 IHC 1/2/3 patients / ORR in IDO1 IHC 1/2/3 patients / ORR in all patients: expansion
[4] = Navoximod plasma pharmacokinetics; format: in vivo, human; details: for PK profile (linearity, dose proportionality): 50–1000 mg BID oral, with atezolizumab; for Tmax: human, plasma, po, 50–1000 mg BID
melanoma = details: ref Long et al. 2018, cited from earlier work
[5] = Phase 1a, 22 patients with solid tumors

Compound: C[C@@H](C(=O)Nc1ccc(Cl)cc1)C1CCC(c2ccnc3ccc(F)cc23)CC1 (some centres unmarked) [BMS-986205]
- In vitro potency compared with epacadostat and navoximod (IDO): greater in vitro potency

Compound: O[C@H](C[C@H]1c2c(F)cccc2-c2cncn21)[C@H]1CC[C@H](O)CC1 [Navoximod]
- Chromaturia, treatment-related AE ([1]; human): 20%
- Discontinuations due to treatment related AEs ([1]; human): 9%
- Fatigue, treatment-related AE ([1]; human): 22%
- Grade ≥ 3 treatment-related AEs ([1]; human): 22%
- Grade ≥ 3 treatment-related rash ([1]; human): 9%
- Patients who discontinued treatment due to rash ([1]; human): 4%
- Pink colored urine (chromaturia) ([1]; human): up to 20%
- Rash overall ([1]; human): around 20%
- Rash, treatment-related AE ([1]; human): 22%
- Treatment related serious AEs ([1]; human): 10%
- Relationship between dose and incidence or severity of AEs [1]: no clear relationship
- Tolerability of the combination [1]: generally well-tolerated
- Mean change in plasma Kyn from the pre-dose baseline (IDO1; patients receiving at least 200 mg navoximod): decreased at all post-dose timepoints beyond 1 hour
- Change in plasma Kyn (IDO1; relative to Cycle 1 Day 1 pre-dose levels): generally decreased with increasing doses
- Activation of intratumoral CD8+ T cells and tumor growth inhibition (preclinical tumor models): more effectively activates intratumoral CD8+ T cells and inhibits tumor growth compared to either single agent alone
- MTD [2]: not reached; also recorded: not identified; also recorded: No MTD was defined
- Clinical activity as a single agent (solid tumors; [5]): limited clinical activity
- Tolerability as a single agent (solid tumors; [5]): generally well-tolerated
- Hepatic adverse events, single agent (solid tumors): Hepatic adverse events had been reported
- Partial response (PR), best overall response ([3]; dose escalation, all patients (n=66)): 9%
- ORR in IDO1 0 patients ([3]; All Patients, n=19): 0 (0%) Responders (%)
- ORR in PDL1 0 patients ([3]; All Patients, n=27): 0 (0%) Responders (%)
- ORR in PDL1 IHC 1/2/3 patients ([3]; All Patients, n=60): 9 (15%) Responders (%)
- ORR in IDO1 IHC 1/2/3 patients ([3]; All Patients, n=68): 9 (13%) Responders (%)
- ORR in all patients ([3]; All Patients, n=91): 10 (11%) Responders (%)
- ORR in IDO1 0 patients ([3]; Biopsy A (CIT naïve), n=3): 0 (0%) Responders (%)
- ORR in PDL1 0 patients ([3]; Biopsy A (CIT naïve), n=5): 0 (0%) Responders (%)
- ORR in PDL1 IHC 1/2/3 patients ([3]; Biopsy A (CIT naïve), n=6): 0 (0%) Responders (%)
- ORR in IDO1 IHC 1/2/3 patients ([3]; Biopsy A (CIT naïve), n=8): 0 (0%) Responders (%)
- ORR in all patients ([3]; Biopsy A (CIT naïve), n=11): 0 (0%) Responders (%)
- ORR in IDO1 0 patients ([3]; Biopsy B (CIT naïve), n=4): 0 (0%) Responders (%)
- ORR in PDL1 0 patients ([3]; Biopsy B (CIT naïve), n=4): 0 (0%) Responders (%)
- ORR in IDO1 IHC 1/2/3 patients ([3]; Biopsy B (CIT naïve), n=8): 1 (12%) Responders (%)
- ORR in PDL1 IHC 1/2/3 patients ([3]; Biopsy B (CIT naïve), n=8): 1 (12%) Responders (%)
- ORR in all patients ([3]; Biopsy B (CIT naïve), n=12): 1 (8%) Responders (%)
- ORR in IDO1 0 patients ([3]; NSCLC (CIT naïve), n=8): 0 (0%) Responders (%)
- ORR in PDL1 0 patients ([3]; NSCLC (CIT naïve), n=11): 0 (0%) Responders (%)
- ORR in PDL1 IHC 1/2/3 patients ([3]; NSCLC (CIT naïve), n=14): 2 (14%) Responders (%)
- ORR in IDO1 IHC 1/2/3 patients ([3]; NSCLC (CIT naïve), n=17): 2 (12%) Responders (%)
- ORR in all patients ([3]; NSCLC (CIT naïve), n=26): 2 (8%) Responders (%)
- ORR in IDO1 0 patients ([3]; NSCLC (relapsed), n=1): 0 (0%) Responders (%)
- ORR in PDL1 0 patients ([3]; NSCLC (relapsed), n=4): 0 (0%) Responders (%)
- ORR in PDL1 IHC 1/2/3 patients ([3]; NSCLC (relapsed), n=11): 0 (0%) Responders (%)
- ORR in IDO1 IHC 1/2/3 patients ([3]; NSCLC (relapsed), n=14): 0 (0%) Responders (%)
- ORR in all patients ([3]; NSCLC (relapsed), n=16): 0 (0%) Responders (%)
- ORR in IDO1 0 patients ([3]; RCC (CIT naïve), n=0): 0 (0%) Responders (%)
- ORR in PDL1 0 patients ([3]; RCC (CIT naïve), n=0): 0 (0%) Responders (%)
- ORR in IDO1 IHC 1/2/3 patients ([3]; RCC (CIT naïve), n=7): 3 (43%) Responders (%)
- ORR in PDL1 IHC 1/2/3 patients ([3]; RCC (CIT naïve), n=7): 3 (43%) Responders (%)
- ORR in all patients ([3]; RCC (CIT naïve), n=7): 3 (43%) Responders (%)
- ORR in IDO1 0 patients ([3]; TNBC (CIT naïve), n=3): 0 (0%) Responders (%)
- ORR in PDL1 0 patients ([3]; TNBC (CIT naïve), n=3): 0 (0%) Responders (%)
- ORR in IDO1 IHC 1/2/3 patients ([3]; TNBC (CIT naïve), n=8): 1 (12%) Responders (%)
- ORR in PDL1 IHC 1/2/3 patients ([3]; TNBC (CIT naïve), n=8): 1 (12%) Responders (%)
- ORR in all patients ([3]; TNBC (CIT naïve), n=11): 1 (9%) Responders (%)
- ORR in IDO1 0 patients ([3]; UBC (CIT naïve), n=0): 0 (0%) Responders (%)
- ORR in PDL1 0 patients ([3]; UBC (CIT naïve), n=0): 0 (0%) Responders (%)
- ORR in IDO1 IHC 1/2/3 patients ([3]; UBC (CIT naïve), n=6): 2 (33%) Responders (%)
- ORR in PDL1 IHC 1/2/3 patients ([3]; UBC (CIT naïve), n=6): 2 (33%) Responders (%)
- ORR in all patients ([3]; UBC (CIT naïve), n=8): 3 (38%) Responders (%)
- PK profile (linearity, dose proportionality) [4]: linear PK profile; also recorded: dose-proportional and linear PK
- PK profile (linearity, dose proportionality) ([4]; listed as navoximod): dose-proportional and linear PK profile
- Tmax ([4]; Tmax range): 0.25 to 4 h
- Tmax ([4]; median Tmax): ~1 h
- PK in combination with atezolizumab compared with single agent ([4]; in vivo): consistent with single-agent PK observations

Compound: NS(=O)(=O)NCCNc1nonc1C(=NO)Nc1ccc(F)c(Br)c1 [epacadostat]
- mPFS (melanoma; epacadostat in combination with pembrolizumab): 4.7 mo.

Compound: pembrolizumab
- mPFS (melanoma; pembrolizumab monotherapy): 4.9 mo.
